Laboratory results reported in PubChem BioAssay AID248 (DTP/NCI, 2004).
Inconclusive results and toxic doses are left out. Cut-off read from the data, not from the text of the source: active = T/C of 150% or more; inactive = T/C below 125%.

Test system: L1210 leukemia ip in BDF1 mice, survival T/C
Experiment: NCI In Vivo Anticancer Drug Screen. Data for tumor model L1210 Leukemia (intraperitoneal) in B6D2F1 (BDF1) mice
Details: endpoint: mean survival time, higher = longer survival
How it was run: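 Antitumor effect is assessed in tumor-bearing animals. Survival in the compound arm is compared with a vehicle-dosed control arm and expressed as their quotient.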

[1] = dose: 100.0 mg/kg/injection, schedule: Q04DX003 (ip), vehicle: saline
[2] = dose: 200.0 mg/kg/injection, schedule: Q04DX003 (ip), vehicle: saline
[3] = dose: 400.0 mg/kg/injection, schedule: Q04DX003 (ip), vehicle: saline
[4] = dose: 25.0 mg/kg/injection, schedule: Q01DX009 (ip), vehicle: saline with Tween-80
[5] = dose: 50.0 mg/kg/injection, schedule: Q01DX009 (ip), vehicle: saline with Tween-80
[6] = dose: 100.0 mg/kg/injection, schedule: Q04DX003 (ip), vehicle: saline with Tween-80
[7] = dose: 100.0 mg/kg/injection, schedule: Q01DX009 (ip), vehicle: saline with Tween-80
[8] = dose: 200.0 mg/kg/injection, schedule: Q01DX009 (ip), vehicle: saline with Tween-80
[9] = dose: 400.0 mg/kg/injection, schedule: Q01DX009 (ip), vehicle: saline with Tween-80
[10] = dose: 100.0 mg/kg/injection, schedule: Q04DX003 (ip), vehicle: Klucel (hydroxypropylcellulose) (HPC)
[11] = dose: 200.0 mg/kg/injection, schedule: Q04DX003 (ip), vehicle: Klucel (hydroxypropylcellulose) (HPC)
[12] = dose: 400.0 mg/kg/injection, schedule: Q04DX003 (ip), vehicle: Klucel (hydroxypropylcellulose) (HPC)
[13] = dose: 100.0 mg/kg/injection, schedule: Q01DX009 (ip), vehicle: Klucel (hydroxypropylcellulose) (HPC)
[14] = dose: 200.0 mg/kg/injection, schedule: Q01DX009 (ip), vehicle: Klucel (hydroxypropylcellulose) (HPC)

Measured: T/C

CCC(C1=NC(C)(C)CO1)c1ccccc1Br (stereo not drawn)
inactive: [1] 97 % of control | [2] 98 % of control | [3] 88 % of control

CC1=NN(c2ccccc2)C(=O)C1C(=O)c1ccccc1 (stereo not drawn)
inactive: [4] 92 % of control | [5] 95 % of control | [6] 94 % of control

CCN=C(c1ccc(NC(=O)c2ccc(C(=O)Nc3ccc(C(=NCC)N(CC)C(=O)NCCCl)cc3)cc2)cc1)N(CC)C(=O)NCCCl
inactive: dose: 3.75 mg/kg/injection, schedule: Q01DX015 (ip), vehicle: methylcellulose (MC) 107 % of control | dose: 7.5 mg/kg/injection, schedule: Q01DX015 (ip), vehicle: methylcellulose (MC) 113 % of control

OC(Cc1cnc2ccccc2n1)(C(F)(F)F)C(F)(F)F
inactive: [7] 98 % of control | [8] 94 % of control | [9] 95 % of control

O=C(Nc1ccc([N+](=O)[O-])cc1)OCC(COc1ccccc1)OC(=O)Nc1ccc([N+](=O)[O-])cc1 (stereo not drawn)
inactive: dose: 100.0 mg/kg/injection, schedule: Q01DX001 (ip), vehicle: other 100 % of control | dose: 200.0 mg/kg/injection, schedule: Q01DX001 (ip), vehicle: other 89 % of control | dose: 400.0 mg/kg/injection, schedule: Q01DX001 (ip), vehicle: other 100 % of control

CCC(/C=N/NC(N)=O)CC
inactive: [10] 101 % of control | [11] 93 % of control | [12] 96 % of control

Cc1ccc(S(=O)(=O)OCC2OC(n3ccc(=O)[nH]c3=O)C3OC(C)(C)OC23)cc1 (stereo not drawn)
inactive: dose: 100.0 mg/kg/injection, schedule: Q01DX005 (ip), vehicle: saline 122 % of control

Nc1cccc(Nc2cc(S(=O)(=O)O)c(N)c3c2C(=O)c2ccccc2C3=O)c1
inactive: dose: 5.0 mg/kg/injection, schedule: Q01DX001 (ip), vehicle: saline 100 % of control | dose: 10.0 mg/kg/injection, schedule: Q01DX001 (ip), vehicle: saline 94 % of control | dose: 20.0 mg/kg/injection, schedule: Q01DX001 (ip), vehicle: saline 100 % of control | dose: 40.0 mg/kg/injection, schedule: Q01DX001 (ip), vehicle: saline 100 % of control | dose: 80.0 mg/kg/injection, schedule: Q01DX001 (ip), vehicle: saline 103 % of control | dose: 100.0 mg/kg/injection, schedule: Q01DX001 (ip), vehicle: saline 93 % of control | dose: 200.0 mg/kg/injection, schedule: Q01DX001 (ip), vehicle: saline 100 % of control

CN(C(=O)CCCO)c1cc([N+](=O)[O-])ccc1OCc1ccccc1
inactive: [7] 93 % of control | [6] 92 % of control | [8] 93 % of control | dose: 200.0 mg/kg/injection, schedule: Q04DX003 (ip), vehicle: saline with Tween-80 101 % of control | [9] 90 % of control | dose: 400.0 mg/kg/injection, schedule: Q04DX003 (ip), vehicle: saline with Tween-80 92 % of control

CCCCCCCCCCC(N)P(=O)(O)O (stereo not drawn)
inactive: dose: 12.5 mg/kg/injection, schedule: Q01DX009 (ip), vehicle: saline with Tween-80 103 % of control | [4] 101 % of control | [5] 105 % of control | dose: 300.0 mg/kg/injection, schedule: Q01DX001 (ip), vehicle: saline 98 % of control

CNc1ncnc(N(C)C)c1[N+](=O)[O-]
inactive: dose: 50.0 mg/kg/injection, schedule: Q01DX009 (ip), vehicle: Klucel (hydroxypropylcellulose) (HPC) 102 % of control | [13] 98 % of control | [14] 109 % of control

O=C1N2CCOC2=NC1(c1ccccc1)c1ccccc1
inactive: dose: 50.0 mg/kg/injection, schedule: Q01DX009 (ip), vehicle: saline 111 % of control | [1] 94 % of control | [2] 103 % of control

O=C(O)c1cc(CBr)cc(CBr)c1
inactive: dose: 3.13 mg/kg/injection, schedule: Q01DX009 (ip), vehicle: saline with Tween-80 97 % of control | dose: 6.25 mg/kg/injection, schedule: Q01DX001 (ip), vehicle: saline with Tween-80 102 % of control | dose: 6.25 mg/kg/injection, schedule: Q01DX009 (ip), vehicle: saline with Tween-80 101 % of control | dose: 12.5 mg/kg/injection, schedule: Q01DX001 (ip), vehicle: saline with Tween-80 113 % of control

CSC1=[N+](C)CCS1
inactive: dose: 75.0 mg/kg/injection, schedule: Q01DX001 (ip), vehicle: saline 106 % of control | dose: 75.0 mg/kg/injection, schedule: Q04DX003 (ip), vehicle: saline with Tween-80 109 % of control | dose: 87.5 mg/kg/injection, schedule: Q01DX009 (ip), vehicle: saline 98 % of control | dose: 150.0 mg/kg/injection, schedule: Q01DX001 (ip), vehicle: saline 107 % of control | dose: 150.0 mg/kg/injection, schedule: Q04DX003 (ip), vehicle: saline with Tween-80 101 % of control | dose: 175.0 mg/kg/injection, schedule: Q01DX009 (ip), vehicle: saline 100 % of control

Oc1cc(Br)ccc1C=Nc1ccc(N2CCCCC2)cc1
inactive: [13] 92 % of control | [10] 100 % of control | [14] 94 % of control | [11] 101 % of control | dose: 400.0 mg/kg/injection, schedule: Q01DX009 (ip), vehicle: Klucel (hydroxypropylcellulose) (HPC) 89 % of control | [12] 103 % of control

NCC(OCCCc1ccccc1)C(Cl)(Cl)Cl (stereo not drawn)
inactive: dose: 12.5 mg/kg/injection, schedule: Q04DX003 (ip), vehicle: saline with Tween-80 105 % of control | [4] 105 % of control | dose: 25.0 mg/kg/injection, schedule: Q04DX003 (ip), vehicle: saline with Tween-80 105 % of control | [5] 113 % of control | dose: 50.0 mg/kg/injection, schedule: Q04DX003 (ip), vehicle: saline with Tween-80 100 % of control

N#CCCC(CC#N)S(=O)(=O)O (stereo not drawn)
inactive: dose: 100.0 mg/kg/injection, schedule: Q01DX009 (ip), vehicle: saline 105 % of control | [1] 100 % of control | dose: 200.0 mg/kg/injection, schedule: Q01DX009 (ip), vehicle: saline 103 % of control | [2] 108 % of control | dose: 400.0 mg/kg/injection, schedule: Q01DX009 (ip), vehicle: saline 102 % of control | [3] 106 % of control

CN1CCC(OC(=O)C2CC(=O)N(C)C(=O)C2)CC1
inactive: dose: 25.0 mg/kg/injection, schedule: Q04DX003 (ip), vehicle: saline 98 % of control | dose: 50.0 mg/kg/injection, schedule: Q04DX003 (ip), vehicle: saline 98 % of control | [1] 100 % of control

Cc1c2ccnc(-c3ccc(F)cc3)c2cc2c1[nH]c1ccccc12
inactive: dose: 16.0 mg/kg/injection, schedule: Q01DX005 (ip), vehicle: saline 100 % of control | dose: 32.0 mg/kg/injection, schedule: Q01DX005 (ip), vehicle: saline 100 % of control | dose: 64.0 mg/kg/injection, schedule: Q01DX005 (ip), vehicle: saline 105 % of control | dose: 128.0 mg/kg/injection, schedule: Q01DX005 (ip), vehicle: saline 103 % of control

O=C(OC1CCC1)c1ccc(N=Nc2ccccc2)cc1
inactive: dose: 75.0 mg/kg/injection, schedule: Q04DX002 (ip), vehicle: Klucel (hydroxypropylcellulose) (HPC) 102 % of control | dose: 150.0 mg/kg/injection, schedule: Q04DX002 (ip), vehicle: Klucel (hydroxypropylcellulose) (HPC) 102 % of control | dose: 300.0 mg/kg/injection, schedule: Q04DX002 (ip), vehicle: Klucel (hydroxypropylcellulose) (HPC) 86 % of control
